In PubChem BioAssay (NCI):
Several values for one entry are separate records, joined by “and”; a condition that tells them apart may be missing. Equal entries are not always repeated.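 Where inhibition never reached the appropriate level, the endpoint shown equals the highest concentration tested. Otherwise, values were interpolated linearly from a five-concentration, 48-hour dose response in 96-well plates. Here, GI50 denotes the concentration required for 50% inhibition of growth. TGI: concentration producing complete growth inhibition.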

What was measured:
Assay in all cases: DTP human tumour cell line panel, 48 h
786-0 renal = system: 786-0 renal
A498 renal = system: A498 renal
A549 NSCLC = system: A549 NSCLC
ACHN renal = system: ACHN renal
BT-549 breast = system: BT-549 breast
CAKI-1 renal = system: CAKI-1 renal
CCRF-CEM leukemia = system: CCRF-CEM leukemia
COLO 205 colon = system: COLO 205 colon
DU-145 prostate = system: DU-145 prostate
EKVX NSCLC = system: EKVX NSCLC
HCC-2998 colon = system: HCC-2998 colon
HCT-116 colon = system: HCT-116 colon
HCT-15 colon = system: HCT-15 colon
HL-60(TB) leukemia = system: HL-60(TB) leukemia
HOP-62 NSCLC = system: HOP-62 NSCLC
HOP-92 NSCLC = system: HOP-92 NSCLC
HS 578T breast = system: HS 578T breast
HT29 colon = system: HT29 colon
IGROV1 ovarian = system: IGROV1 ovarian
K-562 leukemia = system: K-562 leukemia
KM12 colon = system: KM12 colon
LOX IMVI melanoma = system: LOX IMVI melanoma
M14 melanoma = system: M14 melanoma
MALME-3M melanoma = system: MALME-3M melanoma
MCF7 breast = system: MCF7 breast
MDA-MB-231 breast = system: MDA-MB-231 breast
MDA-MB-435 = system: MDA-MB-435
MDA-N = system: MDA-N
MOLT-4 leukemia = system: MOLT-4 leukemia
NCI-H226 lung = system: NCI-H226 lung
NCI-H23 lung = system: NCI-H23 lung
NCI-H460 lung = system: NCI-H460 lung
NCI-H522 lung = system: NCI-H522 lung
NCI/ADR-RES ovarian = system: NCI/ADR-RES ovarian
OVCAR-3 ovarian = system: OVCAR-3 ovarian
OVCAR-4 ovarian = system: OVCAR-4 ovarian
OVCAR-5 ovarian = system: OVCAR-5 ovarian
OVCAR-8 ovarian = system: OVCAR-8 ovarian
PC-3 prostate = system: PC-3 prostate
RPMI-8226 leukemia = system: RPMI-8226 leukemia
RXF 393 renal = system: RXF 393 renal
SF-268 CNS = system: SF-268 CNS
SF-295 CNS = system: SF-295 CNS
SF-539 CNS = system: SF-539 CNS
SK-MEL-2 melanoma = system: SK-MEL-2 melanoma
SK-MEL-28 melanoma = system: SK-MEL-28 melanoma
SK-MEL-5 melanoma = system: SK-MEL-5 melanoma
SK-OV-3 ovarian = system: SK-OV-3 ovarian
SN12C renal = system: SN12C renal
SNB-19 CNS = system: SNB-19 CNS
SNB-75 CNS = system: SNB-75 CNS
SR leukemia = system: SR leukemia
SW-620 colon = system: SW-620 colon
T-47D breast = system: T-47D breast
TK-10 renal = system: TK-10 renal
U251 CNS = system: U251 CNS
UACC-257 melanoma = system: UACC-257 melanoma
UACC-62 melanoma = system: UACC-62 melanoma
UO-31 renal = system: UO-31 renal

COc1ccc(C(OCC2OC(n3cnc4c(=O)n(Cc5ccccc5[N+](=O)[O-])nnc43)C(O)C2O)(c2ccccc2)c2ccc(OC)cc2)cc1 (stereo not given)
TGI (786-0 renal): > 100 µM | TGI (A498 renal): 34.5 µM | TGI (A549 NSCLC): > 100 µM | TGI (ACHN renal): 97.9 µM | TGI (BT-549 breast): > 100 µM | TGI (CAKI-1 renal): > 56.7 µM | TGI (CCRF-CEM leukemia): 20.7 µM | TGI (COLO 205 colon): 34.5 µM | TGI (DU-145 prostate): > 100 µM | TGI (EKVX NSCLC): > 100 µM | TGI (HCC-2998 colon): 26.9 µM | TGI (HCT-116 colon): 13.1 µM | TGI (HCT-15 colon): 91.2 µM | TGI (HL-60(TB) leukemia): 5.85 µM | TGI (HOP-62 NSCLC): > 100 µM | TGI (HOP-92 NSCLC): 23.2 µM | TGI (HS 578T breast): > 94 µM | TGI (HT29 colon): 59.1 µM | TGI (IGROV1 ovarian): > 71.2 µM | TGI (K-562 leukemia): > 57.4 µM | TGI (KM12 colon): > 92.4 µM | TGI (LOX IMVI melanoma): > 39.4 µM | TGI (M14 melanoma): > 100 µM | TGI (MALME-3M melanoma): 49.2 µM | TGI (MCF7 breast): > 100 µM | TGI (MDA-MB-231 breast): > 61.8 µM | TGI (MDA-MB-435): > 91.4 µM | TGI (MDA-N): 47.6 µM | TGI (MOLT-4 leukemia): 9.57 µM | TGI (NCI-H226 lung): 45.5 µM | TGI (NCI-H23 lung): > 90.8 µM | TGI (NCI-H460 lung): > 53.1 µM | TGI (NCI-H522 lung): 48.9 µM | TGI (NCI/ADR-RES ovarian): > 100 µM | TGI (OVCAR-3 ovarian): > 62.3 µM | TGI (OVCAR-4 ovarian): > 100 µM | TGI (OVCAR-5 ovarian): > 100 µM | TGI (OVCAR-8 ovarian): > 100 µM | TGI (PC-3 prostate): > 100 µM | TGI (RPMI-8226 leukemia): 15.7 µM | TGI (RXF 393 renal): > 59.5 µM | TGI (SF-268 CNS): > 100 µM | TGI (SF-295 CNS): > 100 µM | TGI (SF-539 CNS): 34.1 µM | TGI (SK-MEL-2 melanoma): 60.6 µM | TGI (SK-MEL-28 melanoma): 69.5 µM | TGI (SK-MEL-5 melanoma): > 45.5 µM | TGI (SK-OV-3 ovarian): > 100 µM | TGI (SN12C renal): 45.7 µM | TGI (SNB-19 CNS): > 100 µM | TGI (SNB-75 CNS): > 100 µM | TGI (SR leukemia): 8.88 µM | TGI (SW-620 colon): > 100 µM | TGI (T-47D breast): > 100 µM | TGI (TK-10 renal): 64.1 µM | TGI (U251 CNS): > 100 µM | TGI (UACC-257 melanoma): > 100 µM | TGI (UACC-62 melanoma): 38.8 µM | TGI (UO-31 renal): > 87.4 µM

COc1cc(CC(C)C(C)Cc2ccc(O)c(OC)c2)ccc1O (stereo not given)
GI50 (786-0 renal): 13.6 µM | TGI (786-0 renal): 50 µM and 26.5 µM | TGI (A498 renal): 32.8 µM | TGI (A549 NSCLC): 50 µM and 27.1 µM | TGI (ACHN renal): 37.9 µM and 28.2 µM | TGI (BT-549 breast): 50 µM and 31.4 µM | TGI (CAKI-1 renal): 50 µM and 31.9 µM | GI50 (CCRF-CEM leukemia): 0.0496 µM | TGI (CCRF-CEM leukemia): 40.2 µM and 20.8 µM | GI50 (COLO 205 colon): 18.1 µM | TGI (COLO 205 colon): > 50 µM and 32.9 µM | GI50 (DU-145 prostate): 17 µM | TGI (DU-145 prostate): 50 µM and 30.6 µM | TGI (EKVX NSCLC): 41.5 µM and 30.3 µM | TGI (HCC-2998 colon): 32.7 µM | GI50 (HCT-116 colon): 14.6 µM | TGI (HCT-116 colon): 50 µM and 27.7 µM | GI50 (HCT-15 colon): 18 µM | TGI (HCT-15 colon): 50 µM and 39.9 µM | GI50 (HL-60(TB) leukemia): 0.0179 µM | GI50 (HOP-62 NSCLC): 17.6 µM | TGI (HOP-62 NSCLC): 50 µM and 33.6 µM | GI50 (HOP-92 NSCLC): 14.5 µM | TGI (HOP-92 NSCLC): 27.6 µM and 30.2 µM | GI50 (HS 578T breast): 20 µM | TGI (HS 578T breast): 22.7 µM and 49.8 µM | GI50 (HT29 colon): 16.2 µM | TGI (HT29 colon): 50 µM and 31.1 µM | GI50 (IGROV1 ovarian): 16.4 µM | TGI (IGROV1 ovarian): 43.1 µM and 33.7 µM | GI50 (K-562 leukemia): 12.7 µM | TGI (K-562 leukemia): 50 µM and 39 µM | GI50 (KM12 colon): 17.6 µM | TGI (KM12 colon): 50 µM and 33.8 µM | GI50 (LOX IMVI melanoma): 17.9 µM | TGI (LOX IMVI melanoma): 30.7 µM and 40.9 µM | TGI (M14 melanoma): 47.5 µM and 30.2 µM | GI50 (MALME-3M melanoma): 16.2 µM | TGI (MALME-3M melanoma): 32.7 µM and 34 µM | TGI (MCF7 breast): 38 µM | TGI (MDA-MB-231 breast): 50 µM | GI50 (MDA-MB-435): 15.1 µM | TGI (MDA-MB-435): 38.4 µM and 29.6 µM | GI50 (MDA-N): 13.7 µM | TGI (MDA-N): 50 µM and 26.6 µM | GI50 (MOLT-4 leukemia): 1.39 µM | TGI (MOLT-4 leukemia): 22 µM and 13 µM | GI50 (NCI-H226 lung): 16.8 µM | TGI (NCI-H226 lung): 40.7 µM and 33.2 µM | GI50 (NCI-H23 lung): 21.2 µM | TGI (NCI-H23 lung): 50 µM and 44.4 µM | GI50 (NCI-H460 lung): 18.3 µM | TGI (NCI-H460 lung): 39.9 µM and 32.3 µM | GI50 (NCI-H522 lung): 16.2 µM | TGI (NCI-H522 lung): 21.4 µM and 33.5 µM | TGI (NCI/ADR-RES ovarian): 50 µM and 41.6 µM | TGI (OVCAR-3 ovarian): 50 µM and 32.5 µM | GI50 (OVCAR-4 ovarian): 17.3 µM | TGI (OVCAR-4 ovarian): 50 µM and 41.2 µM | GI50 (OVCAR-5 ovarian): 14.4 µM | TGI (OVCAR-5 ovarian): > 50 µM and 27.7 µM | TGI (OVCAR-8 ovarian): 50 µM and 41 µM | TGI (PC-3 prostate): 27.7 µM | GI50 (RPMI-8226 leukemia): 19.4 µM | TGI (RPMI-8226 leukemia): 17.4 µM and 45.8 µM | GI50 (RXF 393 renal): 17.7 µM | TGI (RXF 393 renal): 42.7 µM and 35.4 µM | TGI (SF-268 CNS): 50 µM and 34.7 µM | TGI (SF-295 CNS): 50 µM and 35.1 µM | GI50 (SF-539 CNS): 17 µM | TGI (SF-539 CNS): 50 µM and 31.6 µM | TGI (SK-MEL-2 melanoma): 25 µM | TGI (SK-MEL-28 melanoma): 50 µM and 35.5 µM | GI50 (SK-MEL-5 melanoma): 14.9 µM | TGI (SK-MEL-5 melanoma): 16.5 µM and 28.1 µM | GI50 (SK-OV-3 ovarian): 16.9 µM | TGI (SK-OV-3 ovarian): 50 µM and 33.4 µM | GI50 (SN12C renal): 13.1 µM | TGI (SN12C renal): 50 µM and 26 µM | GI50 (SNB-19 CNS): 15.8 µM | TGI (SNB-19 CNS): 50 µM and 29.6 µM | GI50 (SNB-75 CNS): 18.4 µM | TGI (SNB-75 CNS): 50 µM and 34.5 µM | GI50 (SR leukemia): 6.41 µM | TGI (SR leukemia): 18.8 µM and 24.9 µM | TGI (SW-620 colon): 50 µM and 35 µM | GI50 (T-47D breast): 21.9 µM | TGI (T-47D breast): 50 µM and 50.6 µM | GI50 (TK-10 renal): 18.2 µM | TGI (TK-10 renal): 50 µM and 32.7 µM | TGI (U251 CNS): 50 µM | GI50 (UACC-257 melanoma): 19.2 µM | TGI (UACC-257 melanoma): 50 µM and 37.3 µM | GI50 (UACC-62 melanoma): 14.4 µM | TGI (UACC-62 melanoma): 50 µM and 27.6 µM | TGI (UO-31 renal): 25.3 µM
